Assay results published in US20160271263A1 (Novo Nordisk A/S, priority 2010, published 2016).
Read-outs that look alike come from different tables or passages of the source. Numbered stars: 1 amine (or outer) side, 2 acyl side, 3 side chain; on linkers, the order of the positions; unused ones are H or OH. Side chains are listed from the residue outwards. Peptide text beside a SMILES is read from it. * marks the point of attachment. C18 diacid = O=C(O)CCCCCCCCCCCCCCCCC(=O)*; γGlu = O=C(O)[C@H](CCC(=O)[*:2])N[*:1]; AEEA = NCCOCCOCC(=O)O

Legend:
DPP-IV = DPP-IV (Homo sapiens, UniProt P27487); test: in vitro
Experimental: 10 μM of peptide was incubated with DPP-IV (2 μg/ml) in duplicate at 37° C. in a HEPES buffer to which 0.005% Tween20 were added. […] The samples were analysed by LC-MS for parent peptide. Data were plotted according to 1st kinetics and the stability was reported as half-lives.

in vivo = conditions: male, Sprague Dawley, rat, plasma
Experimental: Fifteen male rats (Sprague Dawley, 400 g, Taconic Europe) were divided into three groups of five rats. The rats were dosed at t=0 with either 15 nmol/kg IV, 30 nmol/kg SC, or 100 nmol/kg, respectively. The IV dosing was performed via the tail vein while the rats were shortly under isoflurane anaesthesia. […] Plasma samples were stored on freeze until analysed by LCMS.

glucagon receptor [1] = target: T1, glucagon receptor (Homo sapiens, UniProt P47871); test: cell-based
Experimental: (§1) The cells (14000 per well) were incubated (37° C., 5% CO2) overnight in 384-well plates. Next day the cells were loaded with a calcium responsive dye that only distributed into the cytoplasm. Probenecid, an inhibitor of the organic anion transporter, was added to prevent the dye from leaving the cell. A PDE inhibitor was added to prevent formatted cAMP from being degraded. […] End point data were collected after 6 minutes. An increase in intracellular cAMP was proportional to an increased in calcium concentrations in the cytoplasm. […] EC50-values were calculated in Prism5.

[2] = ThT fibrillation assay for physical stability (lag time and recovery); format: physicochemical; conditions: Table 2
Excerpt: This has traditionally been measured by visual inspection of the sample. However, that kind of measurement is very subjective and depending on the observer. Therefore, the application of a small molecule indicator probe is much more advantageous. […] Enzymol.
Here, F is the ThT fluorescence at the time t. […] The two important parameters describing fibril formation are the lag-time calculated by t0−2τ and the apparent rate constant kapp 1/τ.
Few of those intermediates nucleate to form a template onto which further intermediates may assembly and the fibrillation proceeds. The lag-time corresponds to the interval in which the critical mass of nucleus is built up and the apparent rate constant is the rate with which the fibril itself is formed.
Samples were prepared freshly before each assay. […] The pH of the sample was adjusted to the desired value using appropriate amounts of concentrated NaOH and HCl. Thioflavin T was added to the samples from a stock solution in H2O to a final concentration of 1 μM.
The plate was sealed with Scotch Pad (Qiagen).
Each run was initiated by incubating the plate at the assay temperature for 10 min. The plate was measured every 20 minutes for a desired period of time. Between each measurement, the plate was shaken and heated as described.
The supernatant was filtered through a 0.22 μm filter and an aliquot was transferred to a HPLC vial. […]

glucagon receptor [3] = target: T1, glucagon receptor; conditions: read-out: Assay (I) Glucagon [EC50]; Table 1; HEK-293 cells, end point data after 6 minutes
Experimental: as §1

T1 sequence (P47871 26-477): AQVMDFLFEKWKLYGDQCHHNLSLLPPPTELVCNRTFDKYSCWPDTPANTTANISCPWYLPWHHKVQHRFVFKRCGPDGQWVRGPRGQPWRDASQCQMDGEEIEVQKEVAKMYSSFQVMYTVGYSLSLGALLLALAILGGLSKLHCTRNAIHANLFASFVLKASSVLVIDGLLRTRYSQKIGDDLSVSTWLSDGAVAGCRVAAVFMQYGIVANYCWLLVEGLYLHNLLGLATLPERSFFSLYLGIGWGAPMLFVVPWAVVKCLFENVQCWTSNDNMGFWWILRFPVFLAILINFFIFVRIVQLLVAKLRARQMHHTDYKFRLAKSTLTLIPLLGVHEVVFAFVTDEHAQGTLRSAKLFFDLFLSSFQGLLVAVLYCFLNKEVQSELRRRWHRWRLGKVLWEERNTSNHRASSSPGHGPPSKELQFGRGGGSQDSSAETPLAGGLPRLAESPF
Sequence of DPP-IV (P27487 whole entry, species assumed): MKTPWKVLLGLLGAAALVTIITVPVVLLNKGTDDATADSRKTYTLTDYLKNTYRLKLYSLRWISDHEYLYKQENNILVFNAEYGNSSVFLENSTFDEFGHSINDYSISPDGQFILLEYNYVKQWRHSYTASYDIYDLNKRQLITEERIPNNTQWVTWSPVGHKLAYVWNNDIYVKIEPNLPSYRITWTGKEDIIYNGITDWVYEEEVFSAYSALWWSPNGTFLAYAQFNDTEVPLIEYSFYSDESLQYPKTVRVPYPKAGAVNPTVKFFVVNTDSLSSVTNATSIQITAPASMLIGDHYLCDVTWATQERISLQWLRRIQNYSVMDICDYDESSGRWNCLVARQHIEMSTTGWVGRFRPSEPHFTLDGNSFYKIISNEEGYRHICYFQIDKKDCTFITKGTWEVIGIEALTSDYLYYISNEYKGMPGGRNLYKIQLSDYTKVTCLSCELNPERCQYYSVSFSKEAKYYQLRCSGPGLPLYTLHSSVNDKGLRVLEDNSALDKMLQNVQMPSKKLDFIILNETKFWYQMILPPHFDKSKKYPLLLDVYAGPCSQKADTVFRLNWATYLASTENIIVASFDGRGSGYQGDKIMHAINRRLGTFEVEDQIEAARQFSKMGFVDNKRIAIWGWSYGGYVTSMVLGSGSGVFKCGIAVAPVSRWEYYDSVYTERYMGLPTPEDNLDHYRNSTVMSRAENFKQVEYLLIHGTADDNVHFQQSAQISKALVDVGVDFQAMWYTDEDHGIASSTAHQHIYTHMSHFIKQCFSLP

EC50 (glucagon receptor [1])	EC50 (glucagon receptor [3])	SMILES	other results
0.094 nM	–	CC(C)C[C@H](NC(=O)[C@H](Cc1ccc(O)cc1)NC(=O)[C@H](CCCCN)NC(=O)[C@H](CO)NC(=O)[C@H](Cc1ccc(O)cc1)NC(=O)[C@H](CC(=O)O)NC(=O)[C@H](CO)NC(=O)[C@@H](NC(=O)[C@H](Cc1ccccc1)NC(=O)[C@@H](NC(=O)CNC(=O)[C@H](CCC(N)=O)NC(=O)[C@H](CO)NC(=O)[C@@H](N)Cc1c[nH]cn1)[C@@H](C)O)[C@@H](C)O)C(=O)N[C@@H](CC(=O)O)C(=O)N[C@@H](CO)C(=O)N[C@@H](CCCNC(=N)N)C(=O)N[C@@H](CCCNC(=N)N)C(=O)N[C@@H](C)C(=O)N[C@@H](CCC(N)=O)C(=O)N[C@@H](CC(=O)O)C(=O)N[C@@H](Cc1ccccc1)C(=O)N[C@H](C(=O)N[C@@H](CCCCNC(=O)CC[C@H](NC(=O)CC[C@H](NC(=O)CC[C@H](NC(=O)CCCCCCCCCCCCCCCCC(=O)O)C(=O)O)C(=O)O)C(=O)O)C(=O)N[C@@H](Cc1c[nH]c2ccccc12)C(=O)N[C@@H](CC(C)C)C(=O)N[C@@H](CC(C)C)C(=O)N[C@@H](CO)C(=O)N[C@H](C(=O)O)[C@@H](C)O)C(C)C [Example 71, N^ε24-[(4S)-4-carboxy-4-[[(4S)-4-carboxy-4-[[(4S)-4-carboxy-4-(17-carboxyheptadecanoylamino)butanoyl]amino]butanoyl]amino]butanoyl]-[Lys^24,Leu^27,Ser^28]-Glucagon]	Th T assay [Lag time] [2]: 45 h
–	0.109 nM	CC(C)C[C@H](NC(=O)[C@H](Cc1ccc(O)cc1)NC(=O)[C@H](CCCNC(=N)N)NC(=O)[C@H](CO)NC(=O)[C@H](Cc1ccc(O)cc1)NC(=O)[C@H](CC(=O)O)NC(=O)[C@H](CO)NC(=O)[C@@H](NC(=O)[C@H](Cc1ccccc1)NC(=O)[C@@H](NC(=O)CNC(=O)[C@H](CCC(N)=O)NC(=O)[C@H](CO)NC(=O)[C@@H](N)Cc1c[nH]cn1)[C@@H](C)O)[C@@H](C)O)C(=O)N[C@@H](CC(=O)O)C(=O)N[C@@H](CO)C(=O)N[C@@H](CCCNC(=N)N)C(=O)N[C@@H](CCCNC(=N)N)C(=O)N[C@@H](C)C(=O)N[C@@H](CCC(N)=O)C(=O)N[C@@H](CC(=O)O)C(=O)N[C@@H](Cc1ccccc1)C(=O)N[C@H](C(=O)N[C@@H](CCCCNC(=O)COCCOCCNC(=O)COCCOCCNC(=O)CC[C@H](NC(=O)CCCCCCCCCCCCCCCCC(=O)O)C(=O)O)C(=O)N[C@@H](Cc1c[nH]c2ccccc12)C(=O)N[C@@H](CC(C)C)C(=O)N[C@@H](CC(C)C)C(=O)N[C@@H](CC(N)=O)C(=O)N[C@H](C(=O)O)[C@@H](C)O)C(C)C [Example 20] (H-HSQGTFTSDYSRYLDSRRAQDFVK([AEEA-AEEA-γGlu-C18 diacid])WLLNT-OH; N-terminus and C-terminus assumed)	–
–	0.021 nM	CC(C)C[C@H](NC(=O)[C@H](Cc1ccc(O)cc1)NC(=O)[C@H](CCCCN)NC(=O)[C@H](CO)NC(=O)[C@H](Cc1ccc(O)cc1)NC(=O)[C@H](CC(=O)O)NC(=O)[C@H](CO)NC(=O)[C@@H](NC(=O)[C@H](Cc1ccccc1)NC(=O)[C@@H](NC(=O)CNC(=O)[C@H](CCC(N)=O)NC(=O)[C@H](CO)NC(=O)[C@@H](N)Cc1c[nH]cn1)[C@@H](C)O)[C@@H](C)O)C(=O)N[C@@H](CC(=O)O)C(=O)N[C@@H](CO)C(=O)N[C@@H](CCCNC(=N)N)C(=O)N[C@@H](CCCNC(=N)N)C(=O)N[C@@H](C)C(=O)N[C@@H](CCC(N)=O)C(=O)N[C@@H](CCC(=O)O)C(=O)N[C@@H](Cc1ccccc1)C(=O)N[C@H](C(=O)N[C@@H](CCCCNC(=O)COCCOCCNC(=O)COCCOCCNC(=O)CC[C@H](NC(=O)CCCCCCCCCCCCCCCCC(=O)O)C(=O)O)C(=O)N[C@@H](Cc1c[nH]c2ccccc12)C(=O)N[C@@H](CC(C)C)C(=O)N[C@@H](CC(C)C)C(=O)N[C@@H](CC(N)=O)C(=O)N[C@H](C(=O)O)[C@@H](C)O)C(C)C [Example 21]	–
0.053 nM	–	CC(C)C[C@H](NC(=O)[C@H](Cc1ccc(O)cc1)NC(=O)[C@H](CCCCN)NC(=O)[C@H](CO)NC(=O)[C@H](Cc1ccc(O)cc1)NC(=O)[C@H](CC(=O)O)NC(=O)[C@H](CO)NC(=O)[C@@H](NC(=O)[C@H](Cc1ccccc1)NC(=O)[C@@H](NC(=O)CNC(=O)[C@H](CCC(N)=O)NC(=O)[C@H](CO)NC(=O)[C@@H](N)Cc1c[nH]cn1)[C@@H](C)O)[C@@H](C)O)C(=O)N[C@@H](CC(=O)O)C(=O)N[C@@H](CO)C(=O)N[C@@H](CCCNC(=N)N)C(=O)N[C@@H](CCCNC(=N)N)C(=O)N[C@@H](C)C(=O)N[C@@H](CCC(N)=O)C(=O)N[C@@H](CCC(=O)O)C(=O)N[C@@H](Cc1ccccc1)C(=O)N[C@H](C(=O)N[C@@H](CCCCNC(=O)CC[C@H](NC(=O)CC[C@H](NC(=O)COCCOCCNC(=O)CC[C@H](NC(=O)CCCCCCCCCCCCCCCCC(=O)O)C(=O)O)C(=O)O)C(=O)O)C(=O)N[C@@H](Cc1c[nH]c2ccccc12)C(=O)N[C@@H](CC(C)C)C(=O)N[C@@H](CC(C)C)C(=O)N[C@@H](CO)C(=O)N[C@H](C(=O)O)[C@@H](C)O)C(C)C [Example 91, N^ε24-[(4S)-4-carboxy-4-[[(4S)-4-carboxy-4-[[2-[2-[2-[[(4S)-4-carboxy-4-(17-carboxyheptadecanoylamino)butanoyl]amino]ethoxy]ethoxy]acetyl]amino]butanoyl]amino]butanoyl]-[Glu21,Lys24,Leu27,Ser28]-Glucagon]	–
0.003 nM	–	CC(C)C[C@H](NC(=O)[C@H](Cc1ccc(O)cc1)NC(=O)[C@H](CCCCN)NC(=O)[C@H](CO)NC(=O)[C@H](Cc1ccc(O)cc1)NC(=O)[C@H](CC(=O)O)NC(=O)[C@H](CO)NC(=O)[C@@H](NC(=O)[C@H](Cc1ccccc1)NC(=O)[C@@H](NC(=O)CNC(=O)[C@H](CCC(N)=O)NC(=O)[C@H](CO)NC(=O)[C@@H](N)Cc1c[nH]cn1)[C@@H](C)O)[C@@H](C)O)C(=O)N[C@@H](CC(=O)O)C(=O)N[C@@H](CCCCNC(=O)COCCOCCNC(=O)COCCOCCNC(=O)CC[C@H](NC(=O)CCCCCCCCCCCCCCCCC(=O)O)C(=O)O)C(=O)N[C@@H](CCCNC(=N)N)C(=O)N[C@@H](CCCNC(=N)N)C(=O)N[C@@H](C)C(=O)N[C@@H](CCC(N)=O)C(=O)N[C@@H](CC(=O)O)C(=O)N[C@@H](Cc1ccccc1)C(=O)N[C@H](C(=O)N[C@@H](CCC(N)=O)C(=O)N[C@@H](Cc1c[nH]c2ccccc12)C(=O)N[C@@H](CC(C)C)C(=O)N[C@@H](CC(C)C)C(=O)N[C@@H](CC(N)=O)C(=O)N[C@H](C(=O)O)[C@@H](C)O)C(C)C [Example 17] (H-HSQGTFTSDYSKYLDK([AEEA-AEEA-γGlu-C18 diacid])RRAQDFVQWLLNT-OH; N-terminus and C-terminus assumed)	–

SMILES	EC50 (glucagon receptor [1])	EC50 (glucagon receptor [3])	other results
CC(C)C[C@H](NC(=O)[C@H](Cc1ccc(O)cc1)NC(=O)[C@H](CCCCN)NC(=O)[C@H](CO)NC(=O)[C@H](Cc1ccc(O)cc1)NC(=O)[C@H](CC(=O)O)NC(=O)[C@H](CO)NC(=O)[C@@H](NC(=O)[C@H](Cc1ccccc1)NC(=O)[C@@H](NC(=O)CNC(=O)[C@H](CCC(N)=O)NC(=O)[C@H](CO)NC(=O)[C@@H](N)Cc1c[nH]cn1)[C@@H](C)O)[C@@H](C)O)C(=O)N[C@@H](CC(=O)O)C(=O)N[C@@H](CO)C(=O)N[C@@H](CCCCN)C(=O)N[C@@H](CCCCN)C(=O)N[C@@H](C)C(=O)N[C@@H](CCC(N)=O)C(=O)N[C@@H](CCC(=O)O)C(=O)N[C@@H](Cc1ccccc1)C(=O)N[C@H](C(=O)N[C@@H](CCCCNC(=O)COCCOCCNC(=O)COCCOCCNC(=O)CC[C@H](NC(=O)CCCCCCCCCCCCCCCCC(=O)O)C(=O)O)C(=O)N[C@@H](Cc1c[nH]c2ccccc12)C(=O)N[C@@H](CC(C)C)C(=O)N[C@@H](CC(C)C)C(=O)N[C@@H](CC(N)=O)C(=O)N[C@H](C(=O)O)[C@@H](C)O)C(C)C [Example 3] (H-HSQGTFTSDYSKYLDSKKAQEFVK([AEEA-AEEA-γGlu-C18 diacid])WLLNT-OH)	0.019 nM	–	half-life at 10 μM (DPP-IV): 4.33 h; half-life (in vivo; iv, 15 nmol/kg): ~8.6 h; half-life (in vivo; sc, 30 nmol/kg): ~9.4 h
